Measurements as given in ChEMBL document CHEMBL1147673, “NO-donor phenols: a new class of products endowed with antioxidant and vasodilator properties” (J Med Chem, 2006).

Key:
[1] = system: Radical scavenging activity; assay: Antioxidant activity assessed as inhibition of TBARS production in ferrous salt/ascorbate-induced lipid peroxidation in Wistar rat liver microsomal membrane; assay type: functional, microsomes
[2] = system: Radical scavenging activity; assay: Antioxidant activity assessed as inhibition of TBARS production in ferrous salt/ascorbate-induced lipid peroxidation in Wistar rat liver microsomal membrane at 1 mM; assay type: functional, microsomes
[3] = target: T1, Alpha-1D adrenergic receptor (Rattus norvegicus) (UniProt P23944); assay: Vasodilator activity assessed as ability to relax phenylephrine-induced contraction of Wistar rat aortic strips at 30 uM in presence of 1 uM ODQ; assay type: functional, tissue-based; design: scale not given: the % may be the effect or the level left; settings: Aorta
T1 sequence (whole entry): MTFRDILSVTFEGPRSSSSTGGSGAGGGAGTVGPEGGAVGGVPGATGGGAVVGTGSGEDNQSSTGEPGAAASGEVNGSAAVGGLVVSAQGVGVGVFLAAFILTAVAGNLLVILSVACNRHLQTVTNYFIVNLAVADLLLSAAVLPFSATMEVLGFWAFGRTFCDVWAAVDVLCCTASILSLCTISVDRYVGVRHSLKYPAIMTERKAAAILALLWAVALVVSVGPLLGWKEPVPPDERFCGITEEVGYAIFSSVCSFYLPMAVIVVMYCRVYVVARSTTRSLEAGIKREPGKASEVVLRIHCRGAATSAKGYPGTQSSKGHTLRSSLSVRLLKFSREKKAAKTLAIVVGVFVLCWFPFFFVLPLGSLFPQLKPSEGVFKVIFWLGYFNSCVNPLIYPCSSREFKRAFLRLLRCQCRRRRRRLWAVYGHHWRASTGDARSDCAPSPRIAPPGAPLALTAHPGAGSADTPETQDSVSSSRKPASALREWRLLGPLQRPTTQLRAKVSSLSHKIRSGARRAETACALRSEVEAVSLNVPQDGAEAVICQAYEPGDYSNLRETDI

O=[N+]([O-])OCCCc1ccc(O)cc1
IC50 [1]: 143000 nM

NC(=O)c1c(CO)no[n+]1[O-]
IC50 [2]: Not Active

COc1cc(CC(CO[N+](=O)[O-])[N+](=O)[O-])cc(OC)c1O (stereo unspecified)
IC50 [1]: 5400 nM

CCOc1no[n+]([O-])c1S(=O)(=O)c1ccccc1
IC50 [1]: 110000 nM

COc1cc(C)cc(OC)c1O
IC50 [1]: 18000 nM

Cc1ccc(O)cc1 [p-CRESOL]
IC50 [1]: 290000 nM

CN(C)Cc1no[n+]([O-])c1C(N)=O
IC50 [2]: Not Active

CN(CCCc1cc(C(C)(C)C)c(O)c(C(C)(C)C)c1)Cc1no[n+]([O-])c1C(N)=O
IC50 [1]: 1200 nM

Cc1cc(C(C)(C)C)c(O)c(C(C)(C)C)c1 [BUTYLATED HYDROXYTOLUENE]
IC50 [1]: 1700 nM

CC(C)(C)c1cc(CC(CO[N+](=O)[O-])[N+](=O)[O-])cc(C(C)(C)C)c1O (stereo unspecified)
Activity [3]: 24%
IC50 [1]: 2600 nM

COc1cc(CCCOc2no[n+]([O-])c2S(=O)(=O)c2ccccc2)cc(OC)c1O
IC50 [1]: 3400 nM

COc1cc(CCCO[N+](=O)[O-])cc(OC)c1O
IC50 [1]: 5900 nM

Cc1c(C)c2c(c(C)c1O)CCC(C)(COc1no[n+]([O-])c1S(=O)(=O)c1ccccc1)O2 (stereo unspecified)
IC50 [1]: 490 nM

CC(C)(C)c1cc(CCCO[N+](=O)[O-])cc(C(C)(C)C)c1O
IC50 [1]: 2000 nM

O=S(=O)(c1ccccc1)c1c(OCCCc2ccc(O)cc2)no[n+]1[O-]
IC50 [1]: 47000 nM

Cc1c(C)c2c(c(C)c1O)CCC(C)(COCCCO[N+](=O)[O-])O2 (stereo unspecified)
IC50 [1]: 150 nM

CC(C)(C)c1cc(CCCOc2no[n+]([O-])c2S(=O)(=O)c2ccccc2)cc(C(C)(C)C)c1O
IC50 [1]: 2000 nM

O=[N+]([O-])OCC(Cc1ccc(O)cc1)[N+](=O)[O-] (stereo unspecified)
IC50 [1]: 185000 nM

Cc1c(C)c2c(c(C)c1O)CCC(C)(CN(C)Cc1no[n+]([O-])c1C(N)=O)O2 (stereo unspecified)
IC50 [1]: 140 nM

Cc1c(C)c2c(c(C)c1O)CCC(C)(C)O2 [APC-100]
IC50 [1]: 170 nM
